The numbers were not newly measured in patent publication US7414057B2, “Piperazine urea derivatives as melanocortin-4 receptor agonists” (Merck & Co., Inc., priority 2002, dated 2008), which cites them from elsewhere.

The conditions of this series: injected intramuscularly or subcutaneously to males with psychogenic erectile dysfunction.

On to “Ac-Nle-c[Asp-His-DPhe-Arg-Trp-Lys]-NH2 [melanotan-II]”, for which the response rate was 75%.
